Like-named read-outs stand apart in the source and are kept apart here.
Legend:
Neuropathic pain model = format: in vivo; conditions: no data shown
[1] = Pharmacokinetics in plasma and brain after i.p. injection; format: in vivo, rat
Description: In the experiment 40 adult Long-Evans male rats from breeding colony of Institute of Physiology AS CR v.v.i., Prague were used. Rats were treated i.p. with a dose 1 mg/kg of compound from example 9 dissolved in 72 mM of hydroxypropyl-β-cyclodextrine saline solution. Brain and plasma was taken 5 min, 15 min, 30 min, 45 min, 60 min, 90 min, 120 min, 180 min, 24 hours and 48 hours after drug administration. Each brain and blood samples were taken from separate rat. Samples were collected in 4 rats for each time interval. Samples were immediately stored in a −80° C. freezer.
The concentrations of compound from example 9 in rat brain and plasma samples were measured by high performance liquid chromatography (HPLC) coupled with mass spectrometry (Agilent 6320 Ion Trap). Deuteried internal standard (3-d labeled compound from example 9) has been used for ensuring high accuracy of measurement.

rats = assay: Histochemical analysis (FluoroJadeB) after bilateral NMDA-induced hippocampal lesion; format: in vivo, rat; conditions: 1 mg/kg i.p.
Description: Animals were divided into four groups consisting of two series. First group of animals received an application of NMDA (intrahipocampally, i.h.) and compound from Example 9 (1 mg/kg, i.p.). Second group received NMDA i.h. and cyclodextrine i.p., third group obtained saline i.h. and cyclodextrin i.p. Forth group was applied with sterile saline i.h. and compound from Example 9 at a dose 1 mg/kg, i.p. Six animals from each group was sacrificed and perfused at intervals of 1-4 days after experimental manipulation.
Animals were deeply anesthetized by isoflurane (3.5%, driven by air) and fixed in the stereotaxic apparatus. Small drills were made in the skull and subsequently microinjection of NMDA (1 μl, […] NMDA in saline; pH adjusted to 7.2 by calcium dihydrogenphosphate) into both hippocampi was pursued. Coordinates of application (AP=4, L=2.5, DV=4) were localized with stereotaxic atlas (Paxinos and Watson, 2005) and verified in histological controls. Rats were again placed in soft recovery boxes after surgery and carefully monitored after surgery.
Application of compound from Example 9 was done according to experimental scheme either 30 min prior to and after NMDA application (in first series of experiments) or 30 min after lesion in the second series. Animals were perfused on days 1-4 after lesion, their brains were fixed with paraformaldehyde and sacharose solution. The brains were subsequently frozen to −70° C., and thin brain slices were prepared on cryomicrotome, stained and analyzed under light microscope.

Wistar rats = assay: Thermal nociception, plantar test (limb and tail withdrawal latency); format: in vivo, rat
Description: The effect of the compound from example 9 was assessed on acute nociception in rat. Pain was evaluated by measurement of paw/tail withdrawal latencies. Male Wistar rats (Velaz, Czech Republic) were used. Animals were kept at 22° C. (relative humidity was 40-70%) under a 12-hour light/12-hour dark cycle. All experiments were approved by the Committee for Animal Care and conducted in accordance with the ethical guidelines of the International Association for the Study of Pain. The animals were randomly divided into experimental and testing groups groups. The compound from example 9 was dissolved in β-cyclodextrine (the concentration 1.0 mg/ml and 10 mg/kg injected intraperitoneally or β-cyclodextrine injected intraperitoneally in same volume).
Thermal nociception was determined using plantar test equipment (Ugo Basile, Italy). The latency (in seconds) of forelimb, hindlimb or tail withdrawals to the noxious thermal stimulation was measured. Each animal was placed individually in a clear plastic box with a clear glass floor, and was allowed to acclimatize for 10 min; the temperature and humidity in the testing room were kept in the same range as those in the housing rooms. The latencies were measured 3 times per session, separated by a minimum interval of 5 min, and the mean value was used for further analysis. Infrared intensity was set to 40% and the maximum cutoff value was set at 22 seconds to avoid thermal injury. The testing box was cleaned after each session.

[2] = rat, 1 mg/kg i.p., mean of 4 rats

For `CC(=O)[C@H]1CC[C@H]2[C@@H]3CC[C@@H]4C[C@H](OC(=O)[C@@H](N)CCC(=O)O)CC[C@]4(C)[C@H]3CC[C@]12C` [Example 9, 20-Oxo-5β-pregnan-3α-yl L-glutamyl 1-ester], the “action on the neuropathic pain model” value (Neuropathic pain model) was “Beneficial action”, the Tmax ([1]; male, Long-Evans, brain, ip, rat, 1 mg/kg i.p., read-out: Tmax in brain (converted)) was 1 h and the Cmax ([1]; male, Long-Evans, plasma, ip, rat, 1 mg/kg i.p.) was 675 ng/mL. For the same compound, the Tmax ([1]; male, Long-Evans, plasma, ip, rat, 1 mg/kg i.p., read-out: Tmax in plasma (converted)) was 0.25 h, the half-life ([1]; male, Long-Evans, rat, intraperitoneal, 1 mg/kg, plasma, estimated) was 4.45 h and the AUC ([1]; male, Long-Evans, rat, ip, 1 mg/kg, plasma, estimated, read-out: AUC0_inf i.p. (converted)) was 1260 ng·h/mL. For the same compound, the Ke ([1]; plasma, estimated) was 0.002593, the “accumulation in brain tissue” value ([1]; rat, 1 mg/kg i.p.) was “not cumulated in brain tissue” and the “blood brain barrier penetration” value ([1]; rat, 1 mg/kg i.p.) was “penetrates blood brain barrier”. The cmax in brain ([1]; rat, 1 mg/kg i.p.) was 508 ng/whole brain, the “brain level after 2 hours” value [1, 2] was 222 ng/whole brain and the “brain level after 3 hours” value [1, 2] was 128 ng/whole brain. For the same compound, the “brain level after 24 hours” value [1, 2] was 14 ng/whole brain, the “brain level after 48 hours” value [1, 2] was 0.6 ng/whole brain and the “NMDA-induced damage in caudatoputamen and thalamic nuclei (histology)” value (rats) was “Alleviation, but not elimination of damage”. For the same compound, the “NMDA-induced damage in neocortex (histology)” value (rats) was “pronounced cessation of damage in the whole neocortex”, the “NMDA-induced damage to the hippocampus (histology)” value (rats; dentate gyrus, Cornu ammonis fields, subiculum) was “significant decrease of NMDA-induced damage to the hippocampus” and the “limb withdrawal latency to thermal stimulus” value (Wistar rats; 1 mg/kg i.p.) was “Such an effect was not however observed”. The “tail withdrawal reaction to thermal stimulus” value (Wistar rats; 10 mg/kg i.p.) was “suppressed reactivity to painful stimuli”, the “limb withdrawal latency to thermal stimulus” value (Wistar rats; 10 mg/kg i.p., p<0.001) was “significantly prolonged interval of resistance to a painful stimulus” and the “tail withdrawal reaction to thermal stimulus” value (Wistar rats; lower dose (1 mg/kg i.p.)) was “did not yield such an effect”.

— patent publication US8575376B2, “Steroide anionic compounds, method of their production, usage and pharmaceutical preparation involving them” (Ustav Organicke Chemie A Biochemie Akademie Ved Ceske …, priority 2009, dated 2013)
